Literature values, collected in patent publication US20180117047A1, “DRUG FOR PREVENTING AND/OR TREATING DEMENTIA” (NATIONAL UNIVERSITY CORPORATION TOTTORI UNIVERSITY, priority 2015, published 2018).
Read-outs that look alike come from different tables or passages of the source.

Tested on: F11 cell strain, fusion cells of rat primarily cultured nerve cells and mouse neuroblastomas, expressing N141I mutant of presenilin 2
Conditions: cited from earlier work

SMILES	Nerve cell death caused by addition of ecdysone (100 nM xanthine oxidase inhibitor simultaneously with 100 μM acetyl-L-aspartyl-L-glutamyl-L-valyl-L-aspart-1-al (caspase inhibitor))	Nerve cell death caused by addition of ecdysone (100 μM oxypurinol simultaneously with 100 μM acetyl-L-aspartyl-L-glutamyl-L-valyl-L-aspart-1-al (caspase inhibitor))	Nerve cell death caused by addition of ecdysone (100 μM oxypurinol simultaneously with 300 μM apocynin (NADPH oxidase inhibitor))
COc1cc(-c2cnn3c(O)ncnc23)ccc1[S+]([O-])c1ccccc1.[Na] (single isomer, unassigned; (-)) [(−)-4-hydroxy-8-(3-methoxy-4-phenylsulfinylphenyl)pyrazolo[1,5-a]-1,3,5-triazine sodium salt]	suppressed		
O=c1[nH]c(=O)c2c[nH]nc2[nH]1 [oxypurinol]		suppressed	suppressed
